According to PubChem BioAssay AID2060347 (Molecular Pharmacology Branch, DTP, NCI, 2025):

Tested on: 817829-284-R-J1-PDC spheroids with HUVEC/MSC, viability
Experiment: Anticancer human tumor 817829-284-R-J1-PDC patient-derived colon adenocarcinoma cell line growth inhibition [TAK]
Details: for IC50: curve of first compound; for viability, T/C: stronger effect = lower value
Description: Combinatorial screen of targeted agents with TAK-243 and ipatasertib in multi-cell type tumor spheroids
A high-throughput screen of multi-cell type tumor spheroids was designed to identify active combinations of targeted small molecules and TAK-243 or ipatasertib. Complex spheroids include a stromal component modeled by human endothelial cells (HUVEC) and fibroblasts modeled by human mesenchymal stem cells (MSCs). The concentration ranges selected for each drug and investigational agent were based upon clinically achievable concentrations if the clinical Cmax of the agent was known.
Compounds. The drugs and investigational agents: TAK-243 (785004), ipatasertib (767898), everolimus (733504), selumetinib (741078), bortezomib (756655), trametinib (758246), ixazomib (758254), vemurafenib (761431), dabrafenib (764134), sapanisertib (764658), alpelisib (765974), and copanlisib (816437), were obtained from the National Cancer Institute (NCI) Developmental Therapeutics Program Chemical Repository. The FDA-approved anticancer drug set is available from the NCI Developmental Therapeutics Program. […] The stock solutions were prepared in dimethyl sulfoxide (DMSO, Sigma-Aldrich, St. Louis, MO, cat. D2650) at 800-fold the tested concentration and stored at -70 degrees C prior to their use. All drugs and investigational agents were tested over a range starting from a high concentration at or near the clinical Cmax and decreasing in half-log increments. If the clinical Cmax for an agent had not been determined, the highest concentration tested was 10 microM.
NCI60 Cell Culture. NCI60 cell lines were obtained from the NCI Developmental Therapeutics Program Tumor Repository. For each lot of cells, the Repository performed Applied Biosystems AmpFLSTR Identifiler testing with PCR amplification to confirm consistency with the published Identifier STR profile for each cell line. Cells were kept in continuous culture for no more than 20 passages. The optimal seeding densities for each of the cell lines at each time point assessed were determined prior to performing the concentration response studies. Briefly, the NCI60 human tumor lines were grown as monolayers in RPMI 1640 medium supplemented with 10% FBS and 2 mmol/L L-glutamine.
An additional 2 lines were from the NCI60 cell line panel including melanomas, MALME-3M and SK-MEL-2. Pooled donor human umbilical vein endothelial cells (HUVEC, Lonza, cat. CC-2519) and human mesenchymal stem cells (hMSC, Lonza, cat. PT-2501) were purchased from Lonza (Walkersville, MD).
PDMR cell lines were grown in complete medium (DC medium): Dulbecco's modified Eagle's medium (DMEM)/F12 supplemented with 5% fetal bovine serum (FBS), 2 mM L-glutamine, 100 U/mL penicillin and 100 µg/ml streptomycin, 0.4 µg/ml hydrocortisone, 10 ng/ml epidermal growth factor (EGF) recombinant human protein, 24 µg/mL adenine, and 0.1 mg/mL primocin. During culture from frozen stock vials, PDMR cells were cultured in the same medium containing 10 µM Y-27632 (see Table 3). The PDCs were cultured in complete DMEM/F12 media without 10 microM Y-27632 dihydrochloride for at least two passages prior to the screen. The pooled donor HUVEC and hMSC were cultured in endothelial cell growth medium 2 (PromoCell, Heidelberg, Germany, cat. C-22011) and mesenchymal stem cell growth medium 2 (PromoCell, cat. C-28009), respectively. For all experiments, HUVEC and hMSC were used at passages </=5.
For the pre-screen, cell seeding densities were determined from a titration spanning the range from 5,000 to 313 cells per well. The mct-spheroids including 60% malignant cells, 25% HUVEC and 15% MSC dispensed as a mixture into U-bottom Ultra-Low Attachment 384-well plates (Corning, NY)
High-throughput Drug Combination Screening.
Prior to their inoculation into 384-well plates, malignant cells, HUVEC, and hMSC were removed from T flasks using TrypLE express (Thermo Fisher Scientific, cat. 12605036) and harvested by centrifugation for 5 min at 233 x g. […]

[1] = second compound 0.3 µM, first compound 0.0316 µM
[2] = second compound 0.3 µM, first compound 0.1 µM
[3] = second compound 0.3 µM, first compound 0.316 µM
[4] = second compound 0.3 µM, first compound 1 µM
[5] = second compound 0.3 µM, first compound 3.16 µM
[6] = second compound 0.3 µM, first compound 10 µM
[7] = second compound 0.949 µM, first compound 0.0316 µM
[8] = second compound 0.949 µM, first compound 0.1 µM
[9] = second compound 0.949 µM, first compound 0.316 µM
[10] = second compound 0.949 µM, first compound 1 µM
[11] = second compound 0.949 µM, first compound 3.16 µM
[12] = second compound 0.949 µM, first compound 10 µM
[13] = second compound 3 µM, first compound 0.0316 µM
[14] = second compound 3 µM, first compound 0.1 µM
[15] = second compound 3 µM, first compound 0.316 µM
[16] = second compound 3 µM, first compound 1 µM
[17] = second compound 3 µM, first compound 3.16 µM
[18] = second compound 3 µM, first compound 10 µM
[19] = second compound 9.49 µM, first compound 0.0316 µM
[20] = second compound 9.49 µM, first compound 0.1 µM
[21] = second compound 9.49 µM, first compound 0.316 µM
[22] = second compound 9.49 µM, first compound 1 µM
[23] = second compound 9.49 µM, first compound 3.16 µM
[24] = second compound 9.49 µM, first compound 10 µM
[25] = second compound 30 µM, first compound 0.0316 µM
[26] = second compound 30 µM, first compound 0.1 µM
[27] = second compound 30 µM, first compound 0.316 µM
[28] = second compound 30 µM, first compound 1 µM
[29] = second compound 30 µM, first compound 3.16 µM
[30] = second compound 30 µM, first compound 10 µM
[31] = second compound 0.3 µM, first compound 0.000316 µM
[32] = second compound 0.3 µM, first compound 0.001 µM
[33] = second compound 0.3 µM, first compound 0.00316 µM
[34] = second compound 0.3 µM, first compound 0.01 µM
[35] = second compound 0.949 µM, first compound 0.000316 µM
[36] = second compound 0.949 µM, first compound 0.001 µM
[37] = second compound 0.949 µM, first compound 0.00316 µM
[38] = second compound 0.949 µM, first compound 0.01 µM
[39] = second compound 3 µM, first compound 0.000316 µM
[40] = second compound 3 µM, first compound 0.001 µM
[41] = second compound 3 µM, first compound 0.00316 µM
[42] = second compound 3 µM, first compound 0.01 µM
[43] = second compound 9.49 µM, first compound 0.000316 µM
[44] = second compound 9.49 µM, first compound 0.001 µM
[45] = second compound 9.49 µM, first compound 0.00316 µM
[46] = second compound 9.49 µM, first compound 0.01 µM
[47] = second compound 30 µM, first compound 0.000316 µM
[48] = second compound 30 µM, first compound 0.001 µM
[49] = second compound 30 µM, first compound 0.00316 µM
[50] = second compound 30 µM, first compound 0.01 µM

CC(C)(C)c1nc(-c2cccc(NS(=O)(=O)c3c(F)cccc3F)c2F)c(-c2ccnc(N)n2)s1 + CC(C)NCC(C(=O)N1CCN(c2ncnc3c2C(C)CC3O)CC1)c1ccc(Cl)cc1
IC50 (second compound 0.3 µM): 110 nM | IC50 (second compound 0.949 µM): < 31.6 nM | IC50 (second compound 3 µM): < 31.6 nM | IC50 (second compound 9.49 µM): < 31.6 nM | IC50 (second compound 30 µM): < 31.6 nM | viability, T/C [1]: 77.1% | viability, T/C [2]: 52.1% | viability, T/C [3]: 27.6% | viability, T/C [4]: 18% | viability, T/C [5]: 20% | viability, T/C [6]: 40.6% | viability, T/C [7]: 27.6% | viability, T/C [8]: 31.9% | viability, T/C [9]: 22.4% | viability, T/C [10]: 15.3% | viability, T/C [11]: 15.6% | viability, T/C [12]: 20.1% | viability, T/C [13]: 15.9% | viability, T/C [14]: 16.9% | viability, T/C [15]: 13.4% | viability, T/C [16]: 11.1% | viability, T/C [17]: 11% | viability, T/C [18]: 13.7% | viability, T/C [19]: 9.35% | viability, T/C [20]: 10.3% | viability, T/C [21]: 9.8% | viability, T/C [22]: 7.09% | viability, T/C [23]: 6.36% | viability, T/C [24]: 9.46% | viability, T/C [25]: 5.5% | viability, T/C [26]: 5.14% | viability, T/C [27]: 5.38% | viability, T/C [28]: 3.29% | viability, T/C [29]: 3.24% | viability, T/C [30]: 4.85%

CC(C)CC(NC(=O)CNC(=O)c1cc(Cl)ccc1Cl)B1OC(=O)CC(CC(=O)O)(C(=O)O)O1 (stereo not given) + CC(C)NCC(C(=O)N1CCN(c2ncnc3c2C(C)CC3O)CC1)c1ccc(Cl)cc1
IC50 (second compound 0.3 µM): 15.9 nM | IC50 (second compound 0.949 µM): < 0.316 nM | IC50 (second compound 3 µM): < 0.316 nM | IC50 (second compound 9.49 µM): < 0.316 nM | IC50 (second compound 30 µM): < 0.316 nM | viability, T/C [31]: 103% | viability, T/C [32]: 93.4% | viability, T/C [33]: 82.4% | viability, T/C [34]: 81% | viability, T/C [1]: 4.01% | viability, T/C [2]: 0.25% | viability, T/C [35]: 33.5% | viability, T/C [36]: 22.1% | viability, T/C [37]: 30.2% | viability, T/C [38]: 25% | viability, T/C [7]: 0.36% | viability, T/C [8]: 0.13% | viability, T/C [39]: 10.5% | viability, T/C [40]: 10% | viability, T/C [41]: 10.2% | viability, T/C [42]: 10.8% | viability, T/C [13]: 0.42% | viability, T/C [14]: 0.12% | viability, T/C [43]: 5.98% | viability, T/C [44]: 6.67% | viability, T/C [45]: 6.96% | viability, T/C [46]: 6.39% | viability, T/C [19]: 0.53% | viability, T/C [20]: 0.12% | viability, T/C [47]: 5.15% | viability, T/C [48]: 4.38% | viability, T/C [49]: 4.75% | viability, T/C [50]: 4.63% | viability, T/C [25]: 0.23% | viability, T/C [26]: 0.32%

CC(C)n1nc(-c2ccc3oc(N)nc3c2)c2c(N)ncnc21 + CC(C)NCC(C(=O)N1CCN(c2ncnc3c2C(C)CC3O)CC1)c1ccc(Cl)cc1
IC50 (second compound 0.3 µM): 15 nM | IC50 (second compound 0.949 µM): 1.51 nM | IC50 (second compound 3 µM): < 0.316 nM | IC50 (second compound 9.49 µM): < 0.316 nM | IC50 (second compound 30 µM): < 0.316 nM | viability, T/C [31]: 95.8% | viability, T/C [32]: 97.5% | viability, T/C [33]: 81.4% | viability, T/C [34]: 62.4% | viability, T/C [1]: 29.9% | viability, T/C [2]: 18% | viability, T/C [35]: 62% | viability, T/C [36]: 63.8% | viability, T/C [37]: 26.7% | viability, T/C [38]: 20.4% | viability, T/C [7]: 14.1% | viability, T/C [8]: 9.37% | viability, T/C [39]: 17.9% | viability, T/C [40]: 22.1% | viability, T/C [41]: 14.9% | viability, T/C [42]: 10.1% | viability, T/C [13]: 9.06% | viability, T/C [14]: 7.73% | viability, T/C [43]: 9.8% | viability, T/C [44]: 12.5% | viability, T/C [45]: 7.29% | viability, T/C [46]: 7.54% | viability, T/C [19]: 4.98% | viability, T/C [20]: 4.87% | viability, T/C [47]: 6.54% | viability, T/C [48]: 6.66% | viability, T/C [49]: 5.92% | viability, T/C [50]: 3.93% | viability, T/C [25]: 3.59% | viability, T/C [26]: 3.29%

CCCS(=O)(=O)Nc1ccc(F)c(C(=O)c2c[nH]c3ncc(-c4ccc(Cl)cc4)cc23)c1F + CC(C)NCC(C(=O)N1CCN(c2ncnc3c2C(C)CC3O)CC1)c1ccc(Cl)cc1
IC50 (second compound 0.3 µM): 1900 nM | IC50 (second compound 0.949 µM): < 316 nM | IC50 (second compound 3 µM): < 316 nM | IC50 (second compound 9.49 µM): < 316 nM | IC50 (second compound 30 µM): < 316 nM | viability, T/C [3]: 78.3% | viability, T/C [4]: 66.9% | viability, T/C [5]: 38% | viability, T/C [6]: 12.7% | viability, T/C (second compound 0.3 µM, first compound 31.6 µM): 20% | viability, T/C (second compound 0.3 µM, first compound 100 µM): 46.3% | viability, T/C [9]: 29.6% | viability, T/C [10]: 26.4% | viability, T/C [11]: 20.5% | viability, T/C [12]: 10.8% | viability, T/C (second compound 0.949 µM, first compound 31.6 µM): 5.67% | viability, T/C (second compound 0.949 µM, first compound 100 µM): 17.3% | viability, T/C [15]: 18.5% | viability, T/C [16]: 14.3% | viability, T/C [17]: 11.6% | viability, T/C [18]: 4.96% | viability, T/C (second compound 3 µM, first compound 31.6 µM): 1.71% | viability, T/C (second compound 3 µM, first compound 100 µM): 12.3% | viability, T/C [21]: 9.5% | viability, T/C [22]: 7.83% | viability, T/C [23]: 7.41% | viability, T/C [24]: 2.4% | viability, T/C (second compound 9.49 µM, first compound 31.6 µM): 0.86% | viability, T/C (second compound 9.49 µM, first compound 100 µM): 7.59% | viability, T/C [27]: 5.18% | viability, T/C [28]: 5.41% | viability, T/C [29]: 2.16% | viability, T/C [30]: 0.51% | viability, T/C (second compound 30 µM, first compound 31.6 µM): 0.2% | viability, T/C (second compound 30 µM, first compound 100 µM): 1.89%
